BindingDB's records for patent US11130748 (Mission Therapeutics, 2021)

Biological target: T1, Ubiquitin carboxyl-terminal hydrolase 30 (Homo sapiens, UniProt Q70CQ3)
T1 sequence (Q70CQ3 whole entry): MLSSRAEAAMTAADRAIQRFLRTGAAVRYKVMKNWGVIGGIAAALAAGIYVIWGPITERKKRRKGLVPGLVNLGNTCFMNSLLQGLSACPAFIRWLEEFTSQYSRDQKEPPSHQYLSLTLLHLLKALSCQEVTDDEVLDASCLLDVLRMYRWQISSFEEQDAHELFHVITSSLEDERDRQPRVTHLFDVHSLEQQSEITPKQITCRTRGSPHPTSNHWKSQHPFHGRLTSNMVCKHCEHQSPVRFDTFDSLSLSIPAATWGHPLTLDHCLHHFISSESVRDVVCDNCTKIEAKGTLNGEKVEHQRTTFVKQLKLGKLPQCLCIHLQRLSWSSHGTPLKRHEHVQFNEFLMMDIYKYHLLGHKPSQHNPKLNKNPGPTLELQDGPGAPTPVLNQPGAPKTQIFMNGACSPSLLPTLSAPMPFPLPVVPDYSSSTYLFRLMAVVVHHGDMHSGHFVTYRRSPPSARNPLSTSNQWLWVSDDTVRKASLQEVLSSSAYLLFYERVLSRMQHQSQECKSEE
Assay: Biochemical Assay
Experimental: Dilution plates were prepared at 21 times the final concentration (2100 μM for a final concentration of 100 μM) in 50% DMSO in a 96-well polypropylene V-bottom plate (Greiner #651201). A typical 8-point dilution series to be 100, 30, 10, 3, 1, 0.3, 0.1, 0.03 μM final. Reactions were performed in duplicate in black 384 well plates (small volume, Greiner 784076) in a final reaction volume of 21 μl. Either 1 μl of 50% DMSO or diluted compound was added to the plate. USP30 was diluted in reaction buffer (40 mM Tris, pH 7.5, 0.005% Tween 20, 0.5 mg/ml BSA, 5 mM beta-mercaptoethanol) to the equivalent of 0.05 μl/well and 10 μl of diluted USP30 was added to the compound. Enzyme and compound were incubated for 30 min at room temp. Reactions were initiated by the addition of 50 nM of TAMRA labelled peptide linked to ubiquitin via an iso-peptide bond as fluorescence polarisation substrate. Reactions were read immediately after addition of substrate and following a 2 hr incubation at room temperature. Readings were performed on a Pherastar Plus (BMG Labtech). λ Excitation 540 nm; λ Emission 590 nm.

## N#CN1CC[C@H](CNC(=O)c2ncc(-c3ccccc3)s2)C1 [US11130748, Example 61]
  IC50: in the range around 550 nM
